Measured values as given in patent US20260015339A1, “CALIX[4]ARENES WITH HIGH ANTICANCER ACTIVITY” (UNIVERSITE GRENOBLE ALPES, priority 2023, published 2026).

Assays:
[1] = Cu^+ transport into liposomes with encapsulated BCS; conditions: POPC/cholesterol 7:3 LUVs, calix[4]arene to lipid 1:1000, 50 μM copper gradient, F/F0 after 600 s
Procedure: The ability of the examples of calix[4]arenes of the invention and the comparative examples to be delivered into a lipidic bilayer membrane of a liposome from a solution and their capacity to then act as a transporter of Cu^+ was evaluated using bathocuproine disulphonate (hereafter abbreviated “BCS”) encapsulated in large unilamellar vesicles (LUVs, also referred to as liposomes) composed of 1-palmitoyl-2-oleoyl-sn-glycero-3-phosphocholine and cholesterol in a 7:3 ratio.
BCS is a fluorescent water soluble phenantroline derivative that can be used as fluorescent dye for the sensing of Cu^+ through the formation of a non-fluorescent 2:1 complex.
Stock solution of lipids were prepared using deacidified CHCl3 and stored in a freezer. CHCl3 was deacidified by passing through activated basic alumina. The lipids used to prepare the liposomes were 2-oleoyl-1-palmitoyl-sn-glycero-3-phosphocholine (POPC), (purity ≥99%) and cholesterol (purity of 95%). 50 mM sodium phosphate buffer were prepared with Millipore water at pH 7 (±0.1) by mixing the solution of the mono- and the di-protonated phosphate salts. The solution of the dye (BCS) was prepared at 0.5 mM concentration in phosphate buffer.
The lipids solutions were mixed in different ratios in a 5 mL round bottom flask. The POPC/cholesterol molar ratio was 7:3 in all experiments. The total amount of lipids per batch varied depending on the amount of liposomes solution required for the experiment. After mixing the lipid solutions in a round bottom flask, the chloroform was evaporated under a gentle air flow and the resulting lipid film was dried at high vacuum for at least an hour. 500 μL of the BCS solution in phosphate buffer and a magnetic stir bar were added to the flask. The flask was then sonicated for 30 seconds and placed under magnetic agitation for at least an hour. The solution was frozen with liquid nitrogen and heated back to room temperature with warm water ten times to form large unilamellar vesicles (LUVs). The liposome solution was extruded 29 times, using an extrusion kit equipped with a membrane with 200 nm pores. Subsequently, the solution was eluted with the buffer solution used for the experiment through a size exclusion column (Sephadex G-25) to remove the external BCS and then diluted with phosphate buffer to obtain a concentration of 0.4 mM in lipids.
Solutions of the calix[4]arenes were prepared at a concentration of 0.24 mM in DMSO and 5 μL of the solution was added 2 minutes before each transport measurement.
Alternatively, calix[4]arenes were pre-incorporated by combining the calix[4]arene (dissolved in chloroform) with the lipids prior to the evaporation of the chloroform to obtain a lipid film. The concentrations and volumes were chosen to obtain a calix[4]arene to lipid of 1:1000.
Fluorescence measurements were performed with a Horiba FluoroMax 4 spectrometer using a 4-faced quartz cuvette (10 mm×10 mm). For the Cu^+ transport assay, the excitation was set at 278 nm and emission was recorded at 393 nm. These values correspond to the excitation and emission maxima of BCS encapsulated inside LUVs.
The Cu^+ solutions added to the liposomes were obtained by dissolving Cu(MeCN)4BF4 in MeCN at 15.25 mM concentration. The copper solution was then diluted by a factor 5 in a phosphate buffer during the first 30 seconds of the experiment to reach a copper concentration of 3.05 mM. 50 μL of the diluted copper solution was added to 3 mL of liposomes, resulting in a copper gradient of 50 μM. The fluorescence level was monitored for 600 seconds after the addition of the copper solution.
For each run the initial plateau and the initial vertical drop (due to the binding of the exterior dye with Cu^+ and the dilution, 1-4 seconds after the addition) were removed. Then the signal was normalised by dividing the fluorescence values (F) by the value at t=0 second (F0). […]

[2] = test system: Non-malignant HaCaT cells; assay: MTS cytotoxicity assay on HaCaT; format: cell-based; conditions: Homo sapiens, 72 hours of treatment
Procedure: Non-malignant HaCaT cells were seeded in 96-well plates together with the calix[4]arene of the formula (2). Cells were grown in RPMI-1640 supplemented with GlutaMAX™ (Gibco™) and fetal calf serum (FCS, 20%) and treated with a broad range of concentrations of the calix[4]arene of the formula (2). After 72 hours of treatment, the cytotoxicity was measured by means of the IC50 value, using the kit “CellTiter 96R AQuous One Solution Cell Proliferation Assay (MTS)” from Promega™. Following 30 minutes of incubation with the MTS reagent, the endpoint measurements were done in triplicate at 485 nm, using a fluorescence plate reader.

[3] = test system: PC9 human lung cancer cell line; assay: Inhibition of PC9 cell proliferation (cell count); format: cell-based; conditions: 3 μM, until 72 hours
Procedure: The inhibition of a PC9 human lung cancer cell line proliferation by the calix[4]arene of the formulation (2) was determined by exposure of said PC9 human lung cancer cell line to a concentration of 3 μM of the compound of the formula (2) until 72 hours. The absolute number of cells were counted in the treated and untreated conditions before treatment (N0) and after 72 hours (Nt).
The FIG. 2 is a graph showing: • the profile of the proliferation index Nt/N0 of the PC9 cells after exposure with the calix[4]arene of the formula (2) with respect to the time (i.e. the curve entitled “calix[4]arene (2)”), • the profile of the proliferation index Nt/N0 of the PC9 cells without any exposure with the calix[4]arene of the formula (2) with respect to the time (i.e. the curve entitled “untreated”).

[4] = Ag^+ transport into liposomes with encapsulated BCS; conditions: after 100 s, silver gradient of 50 μM, 1:1000 transporter to lipid ratio, added from DMSO
Procedure: Liposomes with BCS encapsulated were prepared as described above in the part entitled “II—C—1—Determination of the transport of Cu^+by the examples of calix[4]arenes” and measurements were performed as described in this part.
A Ag^+ solution was prepared by dissolving AgNO3 in a phosphate buffer at 3.05 mM concentration. After the first 30 seconds of the experiment, 50 μL of the Ag^+ solution was added to 3 mL of liposomes, resulting in a silver gradient of 50 μM. The fluorescence level was monitored for 600 seconds after the addition of the copper solution.
When a solution of DMSO with the calix[4]arene of the formula (2) was added to the liposomes (5 μL, to obtain a 1:1000 transport to lipid ratio) the decrease in fluorescence intensity of BCS was much faster (F/F0=0.55 after 100 s) compared to when DMSO without calix[4]arene of the formula (2) (5 μL) was added (F/F0=0.85 after 100 s).

Non-malignant MSC cells = assay: MTS cytotoxicity assay on MSC; format: cell-based; conditions: 72 hours of treatment
Procedure: After 72 hours of treatment, the cytotoxicity was measured by means of the IC50 value, using the kit “CellTiter 96R AQuous One Solution Cell Proliferation Assay (MTS)” from Promega™. Following 30 minutes of incubation with the MTS reagent, the endpoint measurements were done in triplicate at 485 nm, using a fluorescence plate reader.

In the case of CCCOc1c2cccc1Cc1cccc(c1OCc1nccn1C)Cc1cccc(c1OCCC)Cc1cccc(c1OCc1nccn1C)C2 [(2)], the “Cu^+ transport” value [1] is reported as “Yes (means that a significant decrease of the fluorescence of encapsulated BCS was observed upon addition of Cu^+ to the liposomes (F/F0<0.65 after 600 s))”, the IC50 [2] is reported as 1.05 µM and the “proliferation index Nt/N0 (FIG. 2)” value [3] is reported as “clearly inhibits the proliferation”. For the same compound, the “F/F0 (fluorescence intensity of BCS)” value [4] was 0.55 and the IC50 (Non-malignant MSC cells) was 1.01 µM.
